The numbers were not newly measured in patent US5932763A, “Inhibition of matrix metalloproteases by 2-(ω-arolalkyl)-4-biaryl-4-oxobutyric acids” (Bayer Corporation, priority 1997, dated 1999), which cites them from elsewhere.

The conditions of series [1]: Child, et al., J. Pharm. Sci., 66, 466, 1977.
Series [2] has as its system human colon tumor. The note with it: given intraperitoneally; orthotopic model in nude mice.
Series [3] concerns human ovarian carcinoma xenografts. The settings on record: mouse, in vivo.

With `O=C(O)CC(C(=O)c1ccc(-c2ccccc2)cc1)c1ccccc1` (centres unmarked) [LXXVII], in series [1], the “activity of fenbufen analogs (described as inactive)” value (“activity of fenbufen analogs” below) is “inactive”.
For `O=C(CC(C(=O)O)c1ccccc1)c1ccc(-c2ccccc2)cc1` (centres unmarked) [XLIX], the “activity of fenbufen analogs” value in series [1] was “inactive”.
As for `CC(CC(=O)c1ccc(-c2ccccc2)cc1)C(=O)O` (centres unmarked) [XLVII], the “activity of fenbufen analogs” value in series [1] is “inactive”.
As for `CNC(=O)[C@H](Cc1ccccc1)NC(=O)[C@H](CC(C)C)[C@H](CSc1cccs1)C(=O)NO` [batimastat], the “human colon tumor growth and spread” value in series [2] is “inhibits human colon tumor growth and spread”. Also, in series [3], the “survival of mice bearing human ovarian carcinoma xenografts” value was “prolongs the survival”.
